Structures are written as SMILES. Like-named read-outs stand apart in the source and are kept apart here.

For this assay, the target named is Protein arginine deiminase 4 (PAD4) (Homo sapiens, UniProt Q9UM07). Put plainly: PAD4 ammonia release assay. The assay is classed as biochemical. The gist of the method:
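PAD4 (20 nM, 2× working solution) was preincubated with compound for 15 min at RT in 100 mM HEPES pH 8.0, 2 mM CaCl2, 50 mM NaCl, 0.1 mM TCEP, BSA at 1.25% DMSO. BAEE (600 μM, 2× mix) reacted 60 min, then OPA/DTT/EDTA detection for 120 min. IC50 came from a 4-parameter fit, normalized to 50 μM reference (100%) and DMSO (0%).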

[1] abbreviates: PAD4 ammonia release assay, BAEE substrate, 60 min at RT, read-out: Average IC50 Abs.

Protein arginine deiminase 4 (PAD4), sequence (Q9UM07 whole entry): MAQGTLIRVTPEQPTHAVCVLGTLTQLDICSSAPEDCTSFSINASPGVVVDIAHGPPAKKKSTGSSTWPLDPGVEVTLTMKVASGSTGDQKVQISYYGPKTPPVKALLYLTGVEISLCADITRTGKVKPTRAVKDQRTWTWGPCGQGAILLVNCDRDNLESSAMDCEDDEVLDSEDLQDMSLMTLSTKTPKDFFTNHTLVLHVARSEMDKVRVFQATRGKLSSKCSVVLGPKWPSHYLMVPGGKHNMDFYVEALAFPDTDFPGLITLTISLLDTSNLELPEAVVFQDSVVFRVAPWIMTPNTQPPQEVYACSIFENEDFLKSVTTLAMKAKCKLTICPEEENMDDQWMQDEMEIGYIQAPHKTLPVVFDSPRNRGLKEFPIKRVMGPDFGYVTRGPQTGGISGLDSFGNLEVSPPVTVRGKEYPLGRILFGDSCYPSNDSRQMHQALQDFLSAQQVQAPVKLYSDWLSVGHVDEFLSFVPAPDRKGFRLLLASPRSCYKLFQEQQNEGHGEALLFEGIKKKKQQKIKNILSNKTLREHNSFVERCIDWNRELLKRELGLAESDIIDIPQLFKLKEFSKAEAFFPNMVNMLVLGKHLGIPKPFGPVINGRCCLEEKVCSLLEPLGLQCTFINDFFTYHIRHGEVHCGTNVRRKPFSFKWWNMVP

Turning to `Cn1c(-c2cc3ccc4c(c3n2CC2CC2)NCC[S+]4[O-])nc2cc(C(=O)N3C[C@H]4CC[C@@H]3[C@@H]4N)cc(F)c21` (stereo partly drawn) [Example 162, ((1R,4R,7R)-7-amino-2-azabicyclo[2.2.1]heptan-2-yl)(2-(9-(cyclopropylmethyl)-4-oxido-1,2,3,9-tetrahydro-[1,4]thiazino[2,3-g]indol-8-yl)-7-fluoro-1-methyl-1H-benzo[d]imidazol-5-yl)methanone], the IC50 under setting [1] lay within 500 to 5000 nM. For the compound `Cn1c(-c2cc3cccc4c3n2[C@H](C2CC2)CN4CCCO)nc2cc(C(=O)N3C[C@H]4CC[C@@H]3[C@@H]4N)cc(F)c21` (single isomer, unassigned) [Example 113], the IC50 under setting [1] lay within 500 to 5000 nM.

Regarding `Cn1c(-c2cc3ccc4[nH]ccc4c3n2CC2CC2)nc2cc(C(=O)N3C[C@H]4CC[C@@H]3[C@@H]4N)cc(F)c21` [Example 144, ((1R,4R,7R)-7-amino-2-azabicyclo[2.2.1]heptan-2-yl)(2-(1-(cyclopropylmethyl)-1,6-dihydropyrrolo[2,3-e]indol-2-yl)-7-fluoro-1-methyl-1H-benzo[d]imidazol-5-yl)methanone], under setting [1], the half-inhibitory concentration (IC50) was 100 to 500 nM. With `CCC1CN(CC(C)(C)CO)c2cccc3cc(-c4nc5cc(C(=O)N6C[C@H]7CC[C@@H]6[C@@H]7N)cc(F)c5n4C)n1c23` (stereo partly drawn) [Example 89, ((1R,4R,7R)-7-amino-2-azabicyclo[2.2.1]heptan-2-yl)(2-(3-ethyl-1-(3-hydroxy-2,2-dimethylpropyl)-2,3-dihydro-1H-pyrrolo[1,2,3-de]quinoxalin-5-yl)-7-fluoro-1-methyl-1H-benzo[d]imidazol-5-yl)methanone], the IC50 under setting [1] lay in the range of 100 to 500 nM. The same measure, in the same setting: with `COc1cc(C(=O)N2CC[C@H](F)[C@H](N)C2)cc2nc(-c3cc4cccc5c4n3CCN5CCCO)n(CC3CC3)c12` [Example 58, ((3R,4S)-3-amino-4-fluoropiperidin-1-yl)(1-(cyclopropylmethyl)-2-(1-(3-hydroxypropyl)-2,3-dihydro-1H-pyrrolo[1,2,3-de]quinoxalin-5-yl)-7-methoxy-1H-benzo[d]imidazol-5-yl)methanone] the figure was 500 to 5000 nM.

Turning to `CCC1CN(CCCOC)c2cccc3cc(-c4nc5cc(C(=O)N6C[C@H](N)C[C@@H](F)C6)cc(OC)c5n4C)n1c23` (stereo partly drawn) [Example 84, ((3R,5R)-3-amino-5-fluoropiperidin-1-yl)(2-(3-ethyl-1-(3-methoxypropyl)-2,3-dihydro-1H-pyrrolo[1,2,3-de]quinoxalin-5-yl)-7-methoxy-1-methyl-1H-benzo[d]imidazol-5-yl)methanone], the IC50 under setting [1] lay within 100 to 500 nM. In the case of `COc1cc(C(=O)N2C[C@H](N)C[C@@H](F)C2)cc2nc(-c3cc4cccc5c4n3CCN5CCCO)n(Cc3ccc(F)cc3)c12` [Example 36, ((3R,5R)-3-amino-5-fluoropiperidin-1-yl)(1-(4-fluorobenzyl)-2-(1-(3-hydroxypropyl)-2,3-dihydro-1H-pyrrolo[1,2,3-de]quinoxalin-5-yl)-7-methoxy-1H-benzo[d]imidazol-5-yl)methanone], the half-maximal inhibitory concentration (IC50) under setting [1] lay within 100 to 500 nM. `COc1cc(C(=O)N2CCC[C@@H](N)C2)cc2nc(-c3cc4cccc5c4n3CCN5CCCOC(=O)NC3CC3)n(C)c12` [Example 27, (R)-3-(5-(5-(3-aminopiperidine-1-carbonyl)-7-methoxy-1-methyl-1H-benzo[d]imidazol-2-yl)-2,3-dihydro-1H-pyrrolo[1,2,3-de]quinoxalin-1-yl)propyl cyclopropylcarbamate]: under setting [1], the IC50 is 500 to 5000 nM. Take `CCC1CN(CCCO)c2cccc3cc(-c4nc5cc(C(=O)N6C[C@H]7CC[C@@H]6[C@@H]7N)cc(F)c5n4Cc4ccco4)n1c23` (stereo partly drawn) [Example 93, ((1R,4R,7R)-7-amino-2-azabicyclo[2.2.1]heptan-2-yl)(2-(3-ethyl-1-(3-hydroxypropyl)-2,3-dihydro-1H-pyrrolo[1,2,3-de]quinoxalin-5-yl)-7-fluoro-1-(furan-2-ylmethyl)-1H-benzo[d]imidazol-5-yl)methanone]: the IC50 under setting [1] lay within 100 to 500 nM. Regarding `CCn1c(-c2cc3cccc4c3n2C(C)CN4CCCO)nc2cc(C(=O)N3C[C@H](N)C[C@@H](F)C3)cc(OC)c21` (stereo partly drawn) [Example 66, ((3R,5R)-3-amino-5-fluoropiperidin-1-yl)(1-ethyl-2-(1-(3-hydroxypropyl)-3-methyl-2,3-dihydro-1H-pyrrolo[1,2,3-de]quinoxalin-5-yl)-7-methoxy-1H-benzo[d]imidazol-5-yl)methanone], the IC50 under setting [1] is 500 to 5000 nM. The same measure, in the same setting: with `CCC1C(=O)Nc2c(Cl)ccc3cc(-c4nc5cc(C(=O)N6C[C@H]7CC[C@@H]6[C@@H]7N)cc(F)c5n4C)n1c23` (stereo partly drawn) [Example 124, 5-(5-((1R,4R,7R)-7-amino-2-azabicyclo[2.2.1]heptane-2-carbonyl)-7-fluoro-1-methyl-1H-benzo[d]imidazol-2-yl)-9-chloro-3-ethyl-1H-pyrrolo[1,2,3-de]quinoxalin-2(3H)-one] the figure was 500 to 5000 nM; with `COc1cc(C(=O)N2CCC[C@@H](N)C2)cc2nc(-c3cc4cccc5c4n3CCN5CCCNC(C)=O)n(C)c12` [Example 3, (R)—N-(3-(5-(5-(3-aminopiperidine-1-carbonyl)-7-methoxy-1-methyl-1H-benzo[d]imidazol-2-yl)-2,3-dihydro-1H-pyrrolo[1,2,3-de]quinoxalin-1-yl)propyl)acetamide], 500 to 5000 nM. On the same count and under the same terms, as for `COc1cc(-n2cc3c(n2)CCC(N)C3)cc2nc(-c3cc4cccc5c4n3CCN5CCCO)n(C)c12` (stereo not shown) [Example 62, 3-(5-(5-(5-amino-4,5,6,7-tetrahydro-2H-indazol-2-yl)-7-methoxy-1-methyl-1H-benzo[d]imidazol-2-yl)-2,3-dihydro-1H-pyrrolo[1,2,3-de]quinoxalin-1-yl)propan-1-ol], the figure is more than 5000 nM. Same read-out and setting: as for `COc1cc(C(=O)N2CCC[C@@H](N)C2)cc2nc(-c3cc4cccc5c4n3CCN5Cc3ccccc3)n(C)c12` [Example 24, (R)-(3-aminopiperidin-1-yl)(2-(1-benzyl-2,3-dihydro-1H-pyrrolo[1,2,3-de]quinoxalin-5-yl)-7-methoxy-1-methyl-1H-benzo[d]imidazol-5-yl)methanone], the figure is more than 5000 nM; as for `CCC1CN(CCO)c2cccc3cc(-c4nc5cc(C(=O)N6C[C@H](N)C[C@@H](F)C6)cc(OC)c5n4C)n1c23` (stereo partly drawn) [Example 79, ((3R,5R)-3-amino-5-fluoropiperidin-1-yl)(2-(3-ethyl-1-(2-hydroxyethyl)-2,3-dihydro-1H-pyrrolo[1,2,3-de]quinoxalin-5-yl)-7-methoxy-1-methyl-1H-benzo[d]imidazol-5-yl)methanone], 100 to 500 nM. `Cn1c(-c2cc3ccc4c(c3n2CC2CC2)CCNC4)nc2cc(C(=O)N3C[C@H]4CC[C@@H]3[C@@H]4N)cc(F)c21` [Example 151, ((1R,4R,7R)-7-amino-2-azabicyclo[2.2.1]heptan-2-yl)(2-(1-(cyclopropylmethyl)-6,7,8,9-tetrahydro-1H-pyrrolo[2,3-f]isoquinoline-2-yl)-7-fluoro-1-methyl-1H-benzo[d]imidazol-5-yl)methanone]: under setting [1], the IC50 lay in the range of 500 to 5000 nM. As for `CCC1CN(CCCO)c2cccc3cc(-c4nc5cc(C(=O)N6C[C@H]7CC[C@@H]6[C@@H]7N)cc(F)c5n4CC4CC4)n1c23` (stereo partly drawn) [Example 77, ((1R,4R,7R)-7-amino-2-azabicyclo[2.2.1]heptan-2-yl)(1-(cyclopropylmethyl)-2-(3-ethyl-1-(3-hydroxypropyl)-2,3-dihydro-1H-pyrrolo[1,2,3-de]quinoxalin-5-yl)-7-fluoro-1H-benzo[d]imidazol-5-yl)methanone], under setting [1], the IC50 is 100 to 500 nM. Take `COc1cc(C(=O)N2CCC[C@@H](N)C2)cc2nc(-c3cc4cccc5c4n3CCN5C)n(C)c12` [Example 25]: under setting [1], the IC50 is more than 5000 nM. The same measure, in the same setting: with `COc1cc(C(=O)N2CCC[C@@H](N)C2)cc2nc(-c3cc4cccc5c4n3CCN5CCCN)n(C)c12` [Example 7] the figure was 500 to 5000 nM.

`CC1CNc2cccc3cc(-c4nc5cc(C(=O)N6C[C@H]7CC[C@@H]6[C@@H]7N)ccc5n4C)n1c23` (stereo partly drawn) [Example 169, ((1R,4R,7R)-7-amino-2-azabicyclo[2.2.1]heptan-2-yl)(1-methyl-2-(3-methyl-2,3-dihydro-1H-pyrrolo[1,2,3-de]quinoxalin-5-yl)-1H-benzo[d]imidazol-5-yl)methanone]: the IC50 reads like this: (PAD4 activity comparison, read-out: PAD4 Ammonia assay IC50) 550 nM; under setting [1], 500 to 5000 nM. `CCC1CNc2nccc3cc(-c4nc5cc(C(=O)N6C[C@H](N)C[C@@H](F)C6)cc(F)c5n4C)n1c23` (stereo partly drawn) [Example 136, ((3R,5R)-3-amino-5-fluoropiperidin-1-yl)(2-(3-ethyl-4,5-dihydro-3H-2a, 5,6-triazaacenaphthylen-2-yl)-7-fluoro-1-methyl-1H-benzo[d]imidazol-5-yl)methanone]: the IC50 under setting [1] was more than 5000 nM.

Source of the values: patent US20250136607A1 (REGOR PHARMACEUTICALS, INC., priority 2021, published 2025).
